Data taken from publication PMC5736709, “Unravelling the specificity and mechanism of sialic acid recognition by the gut symbiont Ruminococcus gnavus” (Nature Communications, 2017).

Tested on: RgCBM40 binding to LS174T MUC2
Assay: ELISA of RgCBM40 binding to LS174T MUC2 in competition with sugars
Set-up: species or system Ruminococcus gnavus ATCC 29149
Conditions: RgCBM40 preincubated with 1 mM free sugar overnight at 4 °C; immobilised LS174T MUC2; A450
Procedure: RgCBM40 binding to purified mucins was tested by ELISA. Mucins (100 μl of 10 μg ml^−1) were immobilised onto a high binding 96 well plate (Greiner, Stonehouse, UK) overnight at 4 °C. All subsequent steps were carried out for 1 h at room temperature. The plates were blocked with 3% (w/v) BSA, incubated with RgCBM40 (500 μg ml^−1), followed by an incubation with 1:5000 anti-RgNanH (raised in rabbit, Biogenes) then with 1:5000 anti-rabbit secondary antibody (raised in donkey) conjugated to peroxidase (GE Healthcare). Between each step, the plate was washed with 3 × 300 μl of PBS containing 0.05% (v/v) Tween 20 (PBST). Prior to detection, an additional wash step and 30 s incubation with PBST was carried out. Binding was detected using tetramethylbenzidine (TMB) visualisation solution (Biolegend, San Diego, CA, USA) which was incubated for 15 min. The reaction was stopped by addition of 2 M H2SO4 and absorbance measured at 450 nm using a plate-reader (Bench Marl Plus, Biorad), subtracting background readings at 570 nm. Negative controls including no RgCBM40 (subtracted from A450 value), no primary or no secondary antibody were carried out in parallel. For comparison between plates, values were normalised to the reading for LS174T MUC2 which was arbitrarily set at 100%. For enzymatic treatment of the mucin, LS174T MUC2 (2 mg ml^−1) was incubated with sialidases (2 µg ml^−1) overnight at 4 °C on a rotary wheel prior to immobilisation on the plate. For chemical treatment of mucin, LS174T MUC2 was incubated with 0.1 M trifluoroacetic acid (TFA) at 80 °C for 1 h, dialysed against ammonium bicarbonate (50 mM), lyophilised and redissolved in H2O. For the competition assays, RgCBM40 was incubated with 1 mM of free sugar overnight at 4 °C on a rotary wheel prior to addition to the ELISA plate as above. Experiments were carried out in triplicate.

SMILES	Effect of free sugar on adherence of RgCBM40 to MUC2
CC(=O)N[C@H]1[C@H]([C@H](O)[C@H](O)CO)O[C@@](O[C@H]2[C@@H](O)[C@@H](CO)O[C@@H](O[C@H]3[C@H](O)[C@@H](O)C(O)O[C@@H]3CO)[C@@H]2O)(C(=O)O)C[C@@H]1O (stereo partly drawn) [3′SL, α2-3 sialyllactose]	significantly decreased
CC(=O)N[C@H]1[C@H]([C@H](O)[C@H](O)CO)O[C@@](OC[C@H]2O[C@@H](O[C@H]3[C@H](O)[C@@H](O)C(O)O[C@@H]3CO)[C@H](O)[C@@H](O)[C@H]2O)(C(=O)O)C[C@@H]1O (stereo partly drawn) [6′SL, α2,6-sialyllactose]	significantly decreased
